Consider six molecules from ChEMBL document CHEMBL1201862, “PubChem BioAssay data set” (2004).

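A five-concentration, 48-hour dose response in 96-well plates underlies each endpoint, interpolated linearly between surrounding concentrations. Abbreviation: GI50, concentration required for 50% inhibition of growth.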 Activity calls are given as the source filed them. Rule as the data show it: active = GI50 up to about 1.1 µM and inactive = higher. Bounds are passed on as bounds.

Test systems include A498; CAKI-1; DU-145; EKVX; HOP-62; HOP-92; HT-29; NCI-H460; NCI-H522; NCI/ADR-RES; OVCAR-4; RXF 393; SF-268; SF-295; SK-MEL-2; SK-OV-3; SN12C; SNB-75; T47D; U-251.
Common to all, as to experiment: inhibition of tumour cell growth, NCI panel, 48 h

Regarding `CCN1C/C(=C\c2cc(OC)c(OC)c(OC)c2)C2=NN(c3ccccc3)C(c3cc(OC)c(OC)c(OC)c3)C2C1` (stereo not given), the GI50 in the assay with A498 was 17.1 µM (inactive); in the assay on CAKI-1, 0.91 µM (active); in the assay on DU-145, 2.99 µM (inactive); in the assay on EKVX, 2.09 µM (inactive); with HOP-62, 0.855 µM (active); in the assay with HOP-92, 2.92 µM (inactive). The GI50 in the assay with HT-29 was 2.07 µM (inactive); in the assay on NCI-H460, 1.06 µM (active); in the assay with NCI-H522, 1.13 µM (inactive); in the assay with NCI/ADR-RES, 1.43 µM (inactive); in the assay on OVCAR-4 it was 1.91 µM (inactive); in the assay with RXF 393, 0.75 µM (active). In addition, the GI50 is 0.365 µM (active) in the assay on SF-268; 2.54 µM (inactive) in the assay on SF-295; 6.84 µM (inactive) in the assay with SK-MEL-2; 1.74 µM (inactive) with SK-OV-3; 2.47 µM (inactive) with SN12C; 0.268 µM (active) in the assay on SNB-75. The GI50 is 3.53 µM (inactive) with T47D and 0.652 µM (active) in the assay on U-251.

`CC1CC[C@@]2(OC1)O[C@H]1C[C@H]3[C@@H]4CC[C@H]5C[C@@H](OC6OC(CO)C(OC7OC(CO)C(OC8OC(CO)C(O)C(OC9OC(C)C(OC%10OC(C)C(O)C(O)C%10O)C(O)C9O)C8OC8OCC(O)C(O)C8O)C(O)C7O)C(O)C6O)CC[C@]5(C)[C@H]4CC(=O)[C@]3(C)[C@H]1[C@@H]2C` (stereo not given in full): the GI50 with A498 was 18.2 µM (inactive); in the assay with CAKI-1, 15.6 µM (inactive); in the assay on DU-145, 19.9 µM (inactive); with EKVX, 22.1 µM (inactive); in the assay with HOP-62, 21.4 µM (inactive); with HOP-92, 19 µM (inactive). Moreover, the GI50 in the assay with HT-29 was 36 µM (inactive); in the assay on NCI-H460, 17.8 µM (inactive); in the assay on NCI-H522, 23.7 µM (inactive); in the assay with NCI/ADR-RES, 23.7 µM (inactive); in the assay with OVCAR-4, 16.1 µM (inactive); in the assay with RXF 393 it was 16.9 µM (inactive). For the same molecule, the GI50 in the assay with SF-268 was 25.6 µM (inactive); in the assay on SF-295, 23.9 µM (inactive); in the assay with SK-MEL-2 it was 16.1 µM (inactive); with SK-OV-3 it was 24.1 µM (inactive); with SN12C it was 20.9 µM (inactive); in the assay with SNB-75, 19.8 µM (inactive). Also, the GI50 in the assay with T47D was 19.3 µM (inactive); in the assay on U-251 it was 18.7 µM (inactive).

Turning to `CC(C)C(=O)/C=C/c1c(Cl)cccc1Cl`, the GI50 with A498 is 21.2 µM (inactive); in the assay on CAKI-1, 3.47 µM (inactive); in the assay on DU-145 it was 3.51 µM (inactive); in the assay on EKVX, 13.3 µM (inactive); in the assay with HOP-62 it was 5.83 µM (inactive); with HOP-92, 12.9 µM (inactive). Moreover, the GI50 in the assay with HT-29 was 2.84 µM (inactive); in the assay on NCI-H460 it was 2.18 µM (inactive); with NCI-H522, 1.19 µM (inactive); in the assay with NCI/ADR-RES, 3.04 µM (inactive); in the assay with OVCAR-4, 3.4 µM (inactive); in the assay with RXF 393 it was 5.43 µM (inactive). For the same molecule, the GI50 was 2.39 µM (inactive) in the assay with SF-268; 11.6 µM (inactive) in the assay with SF-295; 2.25 µM (inactive) in the assay on SK-MEL-2; 3.28 µM (inactive) in the assay on SK-OV-3; 2.71 µM (inactive) in the assay with SN12C; 2.25 µM (inactive) in the assay with SNB-75. Further, the GI50 in the assay on T47D is 2.95 µM (inactive); with U-251 it was 3.82 µM (inactive).

Regarding `CCOC(=O)Oc1cc2ccsc2c2c1c1ccccc1n2C(=O)OCC`, the GI50 in the assay on A498 is 18.4 µM (inactive); with CAKI-1 it was 58.2 µM (inactive); in the assay with DU-145 it was 32.8 µM (inactive); in the assay on EKVX, 60.7 µM (inactive); in the assay on HOP-62 it was 37.3 µM (inactive); in the assay on HOP-92, 22 µM (inactive). Also, the GI50 in the assay on HT-29 is 69.5 µM (inactive); in the assay with NCI-H460, 30.9 µM (inactive); with NCI-H522 it was 32.1 µM (inactive); with NCI/ADR-RES, 38 µM (inactive); in the assay on OVCAR-4, 40.3 µM (inactive); in the assay on RXF 393 it was 22.2 µM (inactive). The GI50 was 64 µM (inactive) with SF-268; 36.1 µM (inactive) in the assay with SF-295; 48.3 µM (inactive) in the assay with SK-MEL-2; 29 µM (inactive) with SK-OV-3; 37.8 µM (inactive) with SN12C; 27.1 µM (inactive) with SNB-75. Moreover, the GI50 in the assay on T47D was 28.6 µM (inactive); in the assay on U-251 it was 45 µM (inactive).

As to `CC(=O)Nc1ccc(/N=C2\C(c3ccccc3)=C(SC3=C(c4ccccc4)/C(=N\c4ccc(NC(C)=O)cc4)c4ccccc43)c3ccccc32)cc1`, the GI50 in the assay on A498 is 20.6 µM (inactive); in the assay on CAKI-1, 31.4 µM (inactive); with DU-145, 37.8 µM (inactive); in the assay with EKVX, 34.5 µM (inactive); in the assay with HOP-62, 29.7 µM (inactive); in the assay with HOP-92, 27 µM (inactive). The GI50 with HT-29 is 36.7 µM (inactive); in the assay on NCI-H460, 26.7 µM (inactive); with NCI-H522 it was 28.4 µM (inactive); with NCI/ADR-RES, 27.2 µM (inactive); in the assay on OVCAR-4, 29.6 µM (inactive); in the assay with RXF 393, 21.6 µM (inactive). Moreover, the GI50 is 33.8 µM (inactive) with SF-268; 31 µM (inactive) with SF-295; 39.5 µM (inactive) in the assay on SK-MEL-2; 35.8 µM (inactive) with SK-OV-3; 61.2 µM (inactive) in the assay on SN12C; 23.2 µM (inactive) in the assay on SNB-75. Further, the values for the GI50 in the assay on T47D and in the assay on U-251 were 12.9 µM (inactive) and 49.8 µM (inactive), respectively.

For `Fc1ccc2c(c1)nc1n2C(c2c(F)cccc2F)SC1` (stereo not given), the GI50 was 71.8 µM (inactive) in the assay with A498; 32.5 µM (inactive) with CAKI-1; > 100 µM (inactive) with DU-145; 29.2 µM (inactive) with EKVX; 66.7 µM (inactive) with HOP-62; 26.2 µM (inactive) with HOP-92. Also, the GI50 was 31.6 µM (inactive) with HT-29; 37 µM (inactive) with NCI-H460; 30.1 µM (inactive) in the assay with NCI-H522; 27.1 µM (inactive) with NCI/ADR-RES; 48.2 µM (inactive) with OVCAR-4; 62.2 µM (inactive) with RXF 393. Further, the GI50 in the assay on SF-268 was 53.2 µM (inactive); in the assay on SF-295, 30 µM (inactive); in the assay on SK-MEL-2, > 100 µM (inactive); in the assay on SK-OV-3, 59.2 µM (inactive); with SN12C, 70.8 µM (inactive); in the assay with SNB-75, 28.2 µM (inactive). For the same molecule, the GI50 with T47D was 31 µM (inactive); with U-251, 57 µM (inactive).
